BigSolDB 2.1

| Structure (SMILES) | solubility (mole fraction) (in 1,4-dioxane, 298.15 K) | solubility (mole fraction) (in 1,4-dioxane, 303.15 K) | solubility (mole fraction) (in 1,4-dioxane, 308.15 K) | solubility (mole fraction) (in 1,4-dioxane, 313.15 K) | solubility (mole fraction) (in 1,4-dioxane, 318.15 K) | solubility (mole fraction) (in DMF, 298.15 K) | solubility (mole fraction) (in DMF, 303.15 K) | solubility (mole fraction) (in DMF, 308.15 K) | solubility (mole fraction) (in DMF, 313.15 K) | solubility (mole fraction) (in DMF, 318.15 K) |
| --- | --- | --- | --- | --- | --- | --- | --- | --- | --- | --- |
| O=C(/C=C/c1ccc(-c2cccc([N+](=O)[O-])c2)o1)c1ccc(Br)cc1 | 0.00489 | 0.00491 | 0.00495 | 0.00501 | 0.00501 | 0.00705 | 0.0071 | 0.00714 | 0.00722 | 0.00726 |
| O=C(/C=C/c1ccc(-c2cccc([N+](=O)[O-])c2)o1)c1ccc(O)cc1 | 0.00573 | 0.0058 | 0.00581 | 0.00591 | 0.00592 | 0.00665 | 0.0067 | 0.00675 | 0.0068 | 0.00692 |
| O=C(/C=C/c1ccc(-c2cccc([N+](=O)[O-])c2)o1)c1ccccc1 | 0.00553 | 0.0056 | 0.00565 | 0.00571 | 0.00573 | 0.00983 | 0.0099 | 0.00998 | 0.0101 | 0.0101 |
| Nc1ccc(C(=O)/C=C/c2ccc(-c3cccc([N+](=O)[O-])c3)o2)cc1 | 0.00245 | 0.00248 | 0.0025 | 0.00252 | 0.00255 | 0.00264 | 0.00264 | 0.00264 | 0.00264 | 0.00264 |
| O=C(/C=C/c1ccc(-c2cccc([N+](=O)[O-])c2)o1)c1ccc([N+](=O)[O-])cc1 | 0.00229 | 0.00232 | 0.00239 | 0.00241 | 0.00245 | 0.00237 | 0.0024 | 0.00244 | 0.00245 | 0.00248 |
| COc1ccc(C(=O)/C=C/c2ccc(-c3cccc([N+](=O)[O-])c3)o2)cc1 | 0.00732 | 0.00733 | 0.00737 | 0.00742 | 0.00744 | 0.0112 | 0.0112 | 0.0113 | 0.0113 | 0.0114 |
| O=C(/C=C/c1ccc(-c2cccc([N+](=O)[O-])c2)o1)c1ccc(Cl)cc1 | 0.00271 | 0.00272 | 0.00277 | 0.00282 | 0.00284 | 0.0045 | 0.0046 | 0.00468 | 0.0047 | 0.0048 |
| O=C(/C=C/c1ccc(-c2cccc([N+](=O)[O-])c2)o1)CO | 0.00705 | 0.00707 | 0.0071 | 0.00711 | 0.00714 | 0.0094 | 0.00945 | 0.0095 | 0.0095 | 0.00959 |
| O=C(/C=C/c1ccc(-c2cccc([N+](=O)[O-])c2)o1)c1cccc([N+](=O)[O-])c1 | 0.00596 | 0.00601 | 0.00602 | 0.00605 | 0.00608 | 0.00604 | 0.0061 | 0.00614 | 0.0062 | 0.0062 |
| O=C(/C=C/c1ccc(-c2cccc([N+](=O)[O-])c2)o1)c1ccc2ccc(=O)oc2c1 | 0.00617 | 0.00623 | 0.00622 | 0.00624 | 0.00628 | 0.00696 | 0.007 | 0.0071 | 0.0072 | 0.00721 |
